This data set can be described thus: Preparation and aging of 3% SnCl2.2H2O solutions with TSPP or TKPP. It counts as physicochemical. Particulars: room temperature. On the procedure: Solutions are prepared by dissolving TSPP in deionized water (mixing under heat if necessary) and then adding 0.6 g of SnCl2.2H2O to make 20-gram solutions.
A 3% SnCl2.2H2O solution is used as a control.
Solutions are prepared by dissolving TKPP in deionized water (mixing under heat if necessary) and then adding 0.6 g SnCl2.2H2O to make 20-g solutions.

The structures appear in SMILES notation.

`O.O.[Cl][Sn][Cl]` [3% SnCl2.2H2O solution, SnCl2.2H2O]: the “appearance after aging overnight” value is recorded as “form a cloudy precipitate that settles”.

The values are drawn from US10292912B2, “Personal care compositions” (Colgate-Palmolive Company, priority 2015, dated 2019).
